Results on 18 compounds are retold here after paper PMC3855329, “A Fluorescence-Based Thermal Shift Assay Identifies Inhibitors of Mitogen Activated Protein Kinase Kinase 4” (PLoS ONE, 2013).

Assay [1] has as its target T1, human MAP2K4-EE (Homo sapiens, UniProt P45985, S257E/T261E).
T1 construct: Human MAP2K4-EE (residues 37–399); His tag (pMCSG7 vector, TEV-cleavable) (N); made in house; host or cells: E. coli KRX cells with pGro7 (GroEL/GroES)
T1 sequence (P45985 37-399 S257E/T261E): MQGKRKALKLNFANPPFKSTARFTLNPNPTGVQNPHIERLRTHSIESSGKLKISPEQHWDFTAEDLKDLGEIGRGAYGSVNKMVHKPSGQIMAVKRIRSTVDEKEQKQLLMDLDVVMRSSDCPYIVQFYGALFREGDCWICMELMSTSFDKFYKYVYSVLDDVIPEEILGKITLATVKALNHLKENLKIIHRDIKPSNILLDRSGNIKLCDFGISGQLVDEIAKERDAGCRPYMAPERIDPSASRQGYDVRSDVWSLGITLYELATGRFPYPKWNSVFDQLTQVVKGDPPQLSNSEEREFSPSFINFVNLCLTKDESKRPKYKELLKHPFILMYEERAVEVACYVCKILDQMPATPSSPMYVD
Description: Fluorescence-based thermal shift (FTS) assay. The note with it: for ΔTm at 10 µM: 10 µM compound, mean ± SD. It is filed as binding. As to the method: Small molecule screening by FTS assay was performed as described previously, [23] but with modifications, using an Echo550 (Labcyte) for compound transfer and a Mosquito (TTP Labtech) to dispense protein into 384 well PCR plates. Purified MAP2K4-EE was appropriately diluted in a buffer containing 100 mM Hepes, pH 7.5, 150 mM NaCl. […] The PCR plates were sealed with optical seal, shaken, and centrifuged after protein and compounds were added. […] Curve fitting, melting temperature calculation and report generation on the raw FTS data were performed using software developed by us. Initial screening with the 2000 compound Spectrum Collection was carried out in a pooled fashion. Specifically, 3 compounds were added at 10 µM concentration to each well and wells with positive Tm shift >2°C were then dissected to identify the responsible compound.

The target of assay [2] is T2, MAP3K1 activated murine MAP2K4 (MAP2K4-AC) (Mus musculus, UniProt P47809).
T2 construct: purchased Millipore 14-377
T2 sequence (P47809 1-397): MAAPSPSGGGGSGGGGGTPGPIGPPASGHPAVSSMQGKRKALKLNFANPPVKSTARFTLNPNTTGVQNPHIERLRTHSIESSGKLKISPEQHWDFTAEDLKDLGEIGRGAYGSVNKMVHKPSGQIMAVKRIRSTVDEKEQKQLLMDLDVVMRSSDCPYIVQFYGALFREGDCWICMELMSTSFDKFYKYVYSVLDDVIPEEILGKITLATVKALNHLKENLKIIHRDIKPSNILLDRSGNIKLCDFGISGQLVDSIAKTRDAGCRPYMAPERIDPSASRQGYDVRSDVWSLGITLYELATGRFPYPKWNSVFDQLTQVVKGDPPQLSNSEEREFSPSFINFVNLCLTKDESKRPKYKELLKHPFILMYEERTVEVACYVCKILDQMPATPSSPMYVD
The experiment in a line: In vitro MAP2K4 kinase assay, p38α MAPK (K53A) substrate, Western blot densitometry. It counts as biochemical. As for the experimental part:
In addition to activated MAP2K4, the in vitro kinase assay used either kinase dead JNK1-K55M (Abcam # ab95248) or kinase dead p38α MAPK-K53A (generously provided by Dr. Martin Watterson, Northwestern) as the substrate, ATP (Cell Signaling) and kinase assay buffer (25 mM Tris-HCl (pH 7.5), 5 mM beta-glycerophosphate, 2 mM dithiothreitol (DTT), 0.1 mM Na3VO4, 10 mM MgCl2). […] Geraldol, 2′,4′-dihydroxychalcone and 3,2′-dihyrdoxy-4,4′,6′-trimethoxychalcone were purchased from Indofine Chemical Company. All other compounds were purchased from Sigma-Aldrich. To tubes containing 13 µl of 1.5X buffer on ice the assay reagents were added as indicated for a final reaction volume of 20 µL: 25 ng of MAP2K4-AC (stocks of 25 ng/uL were prepared and aliquoted from a 10 ug vial after the supplier concentration was verified using a Nanodrop 1000), inhibitors as denoted (from DMSO stock solutions), 1 µM final ATP, and 1 µg of JNK1 or p38 MAPK. […] All kinase assays were performed twice at separate times.
(§1) Twenty µl of reaction mixtures were separated by sodium dodecyl sulfate-polyacrylamide gel electrophoresis using precast 4–20% gradient gels (Biorad), per the manufacturers' instructions, and transferred onto 0.45 µm nitrocellulose membranes (Biorad). […] Bands were visualized with the aid of chemiluminescence reagents (GE Healthcare) after hybridization with a HRP conjugated rabbit secondary antibody (GE Healthcare). […] The bands were quantified using ImageJ software; normalized inhibitor-response data were plotted using Prism 6 to determine relative IC50 values.

Assay [3] addresses T2, MAP3K1 activated murine MAP2K4 (MAP2K4-AC). Description: In vitro MAP2K4 kinase assay, JNK1 (K55M) substrate, Western blot densitometry. It is filed as biochemical. As for the experimental part:
In addition to activated MAP2K4, the in vitro kinase assay used either kinase dead JNK1-K55M (Abcam # ab95248) or kinase dead p38α MAPK-K53A (generously provided by Dr. Martin Watterson, Northwestern) as the substrate, ATP (Cell Signaling) and kinase assay buffer (25 mM Tris-HCl (pH 7.5), 5 mM beta-glycerophosphate, 2 mM dithiothreitol (DTT), 0.1 mM Na3VO4, 10 mM MgCl2). […] All other compounds were purchased from Sigma-Aldrich. To tubes containing 13 µl of 1.5X buffer on ice the assay reagents were added as indicated for a final reaction volume of 20 µL: 25 ng of MAP2K4-AC (stocks of 25 ng/uL were prepared and aliquoted from a 10 ug vial after the supplier concentration was verified using a Nanodrop 1000), inhibitors as denoted (from DMSO stock solutions), 1 µM final ATP, and 1 µg of JNK1 or p38 MAPK. […] All kinase assays were performed twice at separate times.
as §1

The target in assay [4] is T1, human MAP2K4-EE. The experiment in a line: Fluorescence-based thermal shift (FTS) assay. It counts as binding. As to conditions: 1 mM ligand.
Another assay relates to human PCa cells. More on the design: method as in PMID 18339885. As to conditions: orthotopically implanted into mice; cited from earlier work.
For a further assay, the system named is MMP-2 expression. More on the design: method as in PMID 19638505. The note with it: prospective administration to humans; cited from earlier work.
The mark [5] stands for this setting: kinase dead p38α MAPK-K53A substrate, 1 µM ATP, mean (95% confidence intervals), read-out: IC50-p38.
[6] abbreviates: kinase dead JNK1-K55M substrate, 1 µM ATP, mean (95% confidence intervals), read-out: IC50-JNK1.

Where two headings read alike, the source gives them in different places.

Consider `O=C(/C=C/c1ccccc1)c1ccc(O)cc1O` [2′,4′-dihydroxychalcone], for which the “ΔTm at 10 µM” value was 3.67±0.50 °C on human MAP2K4-EE [1] (n = 3, 10 µM) and 3.7 °C at human MAP2K4-EE [1] (n = 3, read-out: ΔTm at 10 µM). For the same compound, in assay [2] (setting [5]), the IC50 stood at 16.9 µM.

In the case of `O=c1c(O)c(-c2ccccc2)oc2cc(O)ccc12` [3,7-dihydroxyflavone], the “ΔTm at 10 µM” value on human MAP2K4-EE [1] (n = 3, 10 µM) came out at 2.55±0.20 °C; on human MAP2K4-EE [1] (n = 3, read-out: ΔTm at 10 µM), 2.5 °C. Also, in assay [2] (setting [5]), the IC50 amounted to 0.8 µM.

With `Nc1ncnc2c1c(I)cn2[C@@H]1O[C@H](CO)[C@@H](O)[C@H]1O` [5-iodotubercidin], the shift in melting temperature (ΔTm) at 10 µM on human MAP2K4-EE [1] (n = 3, 10 µM) worked out at 4.29±0.07 °C; on human MAP2K4-EE [1] (n = 3, read-out: ΔTm at 10 µM) it was 4.3 °C. Moreover, the IC50 is 2.8 µM in assay [3] (setting [6]) and 0.2 µM in assay [2] (setting [5]).

As for `COc1cc(/C=C(\C#N)C(N)=O)cc(CSc2nc3ccccc3s2)c1O` [AG825], the “ΔTm at 10 µM” value worked out at 2.26±0.15 °C on human MAP2K4-EE [1] (n = 3, 10 µM) and 2.3 °C at human MAP2K4-EE [1] (n = 3, read-out: ΔTm at 10 µM). Also, the IC50 worked out at 25 µM in assay [3] (setting [6]) and 28.5 µM in assay [2] (setting [5]).

Regarding `Nc1ncnc2c1ncn2[C@@H]1O[C@H](COP(=O)(O)OP(=O)(O)NP(=O)(O)O)[C@@H](O)[C@H]1O` [AMP-PNP], the “shift in Tm (ΔTm)” value on human MAP2K4-EE [4] was “highest ΔTm values”.

For `Nc1ncnc2c1ncn2[C@@H]1O[C@H](COP(=O)(O)OP(=O)(O)OP(=O)(O)O)[C@@H](O)[C@H]1O` [ATP], the “shift in Tm (ΔTm)” value on human MAP2K4-EE [4] is > 10 °C.

`O=C1c2ccccc2C(=O)c2c1ccc(O)c2O` [Alizarin, 1,2-dihydroxyanthraquinone]: in assay [2], the IC50 came out at 0.9 µM.

For the compound `O=c1cc(-c2ccc(O)cc2)oc2cc(O)cc(O)c12` [Apigenin], at human MAP2K4-EE [1] (n = 3, read-out: ΔTm at 10 µM), the ΔTm at 10 µM was 2.8 ± 0.23 °C. In addition, the IC50 in assay [3] (setting [6]) is 20.1 µM; in assay [2] (setting [5]), 15.9 µM.

Consider `O=c1cc(-c2ccccc2)oc2cc(O)cc(O)c12` [Chrysin, 5,7-dihydroxyflavone], for which the “ΔTm at 10 µM” value at human MAP2K4-EE [1] (n = 3, 10 µM) is 1.78±0.42 °C; on human MAP2K4-EE [1] (n = 3, read-out: ΔTm at 10 µM), 1.8 °C. Further, in assay [2] (setting [5]), the IC50 is 10.1 µM.

Turning to `O=c1c(-c2ccc(O)cc2)coc2cc(O)ccc12` [Daidzein], the “thermal stabilization of MAP2K4 (concentration dependent thermal shift)” value on human MAP2K4-EE [1] (1, 10 and 25 µM) is reported as “no such thermal stabilization effect”. Also, the “inhibition of MAP2K4 activity” value in assay [2] (concentrations of up to 200 µM, p38 MAPK (K53A) or JNK1 (K55M) substrates) was “does not inhibit”.

Regarding `COc1cc(-c2oc3cc(O)ccc3c(=O)c2O)ccc1O` [Geraldol, 3,4′,7-Trihydroxy-3′-methoxyflavone], in assay [2], the IC50 was 0.8 µM.

Take `NCC(=O)O` [L-glycine]: on human MAP2K4-EE [4], the “shift in Tm (ΔTm)” value is reported as “did not induce thermal stability”.

Consider `Cc1ccc(-c2nn(C(C)(C)C)c3ncnc(N)c23)cc1` [PP1], for which the “ΔTm at 10 µM” value is 2.55±0.03 °C on human MAP2K4-EE [1] (n = 3, 10 µM) and 2.5 °C on human MAP2K4-EE [1] (n = 3, read-out: ΔTm at 10 µM). Also, the IC50 in assay [3] amounted to 16.9 µM; in assay [2] it was 13.8 µM.

Take `CC(C)(C)n1nc(-c2ccc(Cl)cc2)c2c(N)ncnc21` [PP2]: the “ΔTm at 10 µM” value on human MAP2K4-EE [1] (n = 3, 10 µM) was 2.33±0.04 °C; at human MAP2K4-EE [1] (n = 3, read-out: ΔTm at 10 µM), 2.3 °C. The IC50 in assay [3] stood at 22.3 µM; in assay [2], 39.9 µM.

Consider `O=C(CCc1ccc(O)cc1)c1c(O)cc(O)cc1O` [Phloretin], for which the thermal shift (ΔTm) at 10 µM worked out at 2.69±0.33 °C on human MAP2K4-EE [1] (n = 3, 10 µM) and 2.7 °C at human MAP2K4-EE [1] (n = 3, read-out: ΔTm at 10 µM).

In the case of `O=c1c(O)c(-c2ccc(O)c(O)c2)oc2cc(O)cc(O)c12` [Quercetin], the ΔTm at 10 µM at human MAP2K4-EE [1] (n = 3, read-out: ΔTm at 10 µM) was determined as 2.75 ± 0.22 °C. Also, the IC50 turned out to be 1.7 µM in assay [3] (setting [6]) and 2 µM in assay [2] (setting [5]).

For `O=C1c2ccccc2-c2n[nH]c3cccc1c23` [SP600125], the “ΔTm at 10 µM” value at human MAP2K4-EE [1] (n = 3, 10 µM) is 6.4±0.06 °C; on human MAP2K4-EE [1] (n = 3, read-out: ΔTm at 10 µM), > 4 °C. The IC50 in assay [3] (setting [6]) was 0.7 µM; in assay [2] (setting [5]), 0.4 µM.

With `O=c1c(-c2ccc(O)cc2)coc2cc(O)cc(O)c12` [genistein, 4,5,7-trihydroxyisoflavone], the “metastasis of human PCa cells” value with human PCa cells was “inhibits the metastasis”. Also, the “MMP-2 expression in prostate tissue” value in the assay with MMP-2 expression is “selectively decreases MMP-2 expression”.
